The molecules below were run against T1, huPPARα (Homo sapiens, UniProt Q07869) (assay: DNA-dependent binding (ABCD binding), SPA, huPPARα). Details: displacement of tritium-labeled PPARα agonist radioligand.
T1 sequence (Q07869 1-468): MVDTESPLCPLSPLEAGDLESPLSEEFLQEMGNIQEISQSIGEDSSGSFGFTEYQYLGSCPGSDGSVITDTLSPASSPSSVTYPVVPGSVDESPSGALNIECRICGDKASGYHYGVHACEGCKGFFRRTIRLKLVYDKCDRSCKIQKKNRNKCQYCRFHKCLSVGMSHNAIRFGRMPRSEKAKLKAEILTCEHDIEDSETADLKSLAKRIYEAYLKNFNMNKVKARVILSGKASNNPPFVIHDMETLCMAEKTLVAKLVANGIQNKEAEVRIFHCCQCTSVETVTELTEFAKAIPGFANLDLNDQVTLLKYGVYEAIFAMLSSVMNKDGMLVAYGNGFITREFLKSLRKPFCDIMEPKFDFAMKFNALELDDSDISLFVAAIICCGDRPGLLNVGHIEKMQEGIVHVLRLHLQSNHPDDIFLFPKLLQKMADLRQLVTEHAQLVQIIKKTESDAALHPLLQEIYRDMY
T1 sequence (P19793 1-462 partner): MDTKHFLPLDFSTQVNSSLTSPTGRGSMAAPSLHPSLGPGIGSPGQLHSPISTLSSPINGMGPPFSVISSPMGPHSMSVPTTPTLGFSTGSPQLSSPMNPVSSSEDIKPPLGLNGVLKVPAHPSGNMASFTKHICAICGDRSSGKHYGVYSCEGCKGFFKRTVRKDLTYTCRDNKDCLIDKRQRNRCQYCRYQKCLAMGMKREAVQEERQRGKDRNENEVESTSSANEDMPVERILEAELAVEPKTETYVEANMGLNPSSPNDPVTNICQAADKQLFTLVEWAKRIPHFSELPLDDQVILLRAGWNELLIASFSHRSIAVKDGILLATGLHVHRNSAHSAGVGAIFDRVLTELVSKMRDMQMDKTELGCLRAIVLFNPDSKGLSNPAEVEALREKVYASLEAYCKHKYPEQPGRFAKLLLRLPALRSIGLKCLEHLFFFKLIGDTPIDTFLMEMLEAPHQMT
Method: DNA-dependent binding (ABCD binding) was carried out using SPA technology with PPAR receptors. Tritium-labeled PPARγ and PPARα agonists were used as radioligands for generating displacement curves and IC50 values with compounds of the invention. Cotransfection assays were carried out in CV-1 cells. The reporter plasmid contained an acylCoA oxidase (AOX) PPRE and TK promoter upstream of the luciferase reporter cDNA. Appropriate PPARs and RXRα were constitutively expressed using plasmids containing the CMV promoter. […] In order to eliminate such interference, a GAL4 chimeric system was used in which the DNA binding domain of the transfected PPAR was replaced by that of GAL4, and the GAL4 response element was utilized in place of the AOX PPRE. Cotransfection efficacy was determined relative to PPARα agonist and […] reference molecules. Efficacies were determined by computer fit to a concentration-response curve, or in some cases at a single high concentration of agonist (10 μM). For binding or cotransfection studies with receptors other than PPARs, similar assays were carried out using appropriate ligands, receptors, reporter constructs, etc., for that particular receptor.
These studies were carried out to evaluate the ability of compounds of the invention to bind to and/or activate various nuclear transcription factors, particularly huPPARα (“hu” indicates “human”) and huPPARγ. These studies provide in vitro data concerning efficacy and selectivity of compounds of the invention. Furthermore, binding and cotransfection data for compounds of the invention were compared with corresponding data for marketed compounds that act on either huPPARα or huPPARγ.

SMILES	IC50 [nM]
Cc1oc(-c2ccc(-c3c(F)cccc3F)cc2)nc1CCOc1ccc(OC(C)(C)C(=O)O)cc1 [Example 14, 2-(4-{2-[2-(2′,6′-Difluorobiphenyl-4-yl)-5-methyloxazol-4-yl]-ethoxy}-phenoxy)-2-methylpropionic acid]	155
Cc1oc(-c2ccc(-c3ccccc3)cc2)nc1CCOc1cccc(OC(C)(C)C(=O)O)c1 [Example 21, 2-{3-[2-(2-Biphenyl-4-yl-5-methyloxazol-4-yl)ethoxy]phenoxy}-2-methylpropionic acid]	97
Cc1sc(-c2cccc(-c3ccccc3)c2)nc1CCOc1ccc(OC(C)(C)C(=O)O)cc1 [Example 46, 2-{4-[2-(2-Biphenyl-3-yl-5-methyl-thiazol-4-yl)-ethoxy]-phenoxy}-2-methyl-propionic acid]	447

Reference: US6417212B1, “Modulators of peroxisome proliferator activated receptors” (Eli Lilly & Company, priority 1999, dated 2002)
